Assay [1] concerns Phosphorylated Ribosomal Protein S6 (RPS6). The experiment in a line: THP-1 RPS6 ELISA Assay. It counts as cell-based, Human. The settings on record: THP-1 cells, read-out: PI3Kγ_THP1_RPS6_ELISA IC50. A digest of the protocol: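 IC50 values come from a curve of percent inhibition against log compound concentration, using phospho-RPS6 ELISA (450 nm) on THP-1 lysates. Cells were serum-starved overnight, exposed to compound for 2 h at 37 °C, then challenged 15 min with 10 nM MCP-1.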

The target of assay [2] is PI3Kδ (p110δ/p85α) Recombinant Human Protein (Homo sapiens (Human), UniProt O00329). Briefly: PI3Kδ Scintillation Proximity Assay. It counts as biochemical. A digest of the protocol: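 Radiometric read-out: 33P-labelled PIP3 product captured on WGA SPA beads and counted, with IC50 fitted from percent activity relative to DMSO control. Enzyme (3.4 nM) was incubated 120 min at room temperature with 20 μM PIP2 and 2 μM ATP at pH 6.7, 2% DMSO.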

In assay [3] the target is PI3Kγ (p110γ) Recombinant Human Protein (Homo sapiens (Human), UniProt P48736). The experiment in a line: PI3K-γ Scintillation Proximity Assay. Type of assay: biochemical. The note with it: read-out: PI3Kγ IC50. A digest of the protocol: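 Radiometric SPA readout: […] bound to WGA beads after overnight shaking, IC50 derived from % activity of DMSO control. Reaction used human p110γ, 2 μM ATP, 20 μM PIP2, pH 6.7 MOPS buffer with MgCl2, DTT, CHAPS, 2% DMSO, room temperature.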

This note sets out measurements from patent US10479795B2 (Incyte Corporation, priority 2016, dated 2019).

Structures can show the parent of a compound that is named as a salt. Where two headings read alike, the source gives them in different places.

Sequence of PI3Kγ (p110γ) Recombinant Human Protein (P48736 whole entry): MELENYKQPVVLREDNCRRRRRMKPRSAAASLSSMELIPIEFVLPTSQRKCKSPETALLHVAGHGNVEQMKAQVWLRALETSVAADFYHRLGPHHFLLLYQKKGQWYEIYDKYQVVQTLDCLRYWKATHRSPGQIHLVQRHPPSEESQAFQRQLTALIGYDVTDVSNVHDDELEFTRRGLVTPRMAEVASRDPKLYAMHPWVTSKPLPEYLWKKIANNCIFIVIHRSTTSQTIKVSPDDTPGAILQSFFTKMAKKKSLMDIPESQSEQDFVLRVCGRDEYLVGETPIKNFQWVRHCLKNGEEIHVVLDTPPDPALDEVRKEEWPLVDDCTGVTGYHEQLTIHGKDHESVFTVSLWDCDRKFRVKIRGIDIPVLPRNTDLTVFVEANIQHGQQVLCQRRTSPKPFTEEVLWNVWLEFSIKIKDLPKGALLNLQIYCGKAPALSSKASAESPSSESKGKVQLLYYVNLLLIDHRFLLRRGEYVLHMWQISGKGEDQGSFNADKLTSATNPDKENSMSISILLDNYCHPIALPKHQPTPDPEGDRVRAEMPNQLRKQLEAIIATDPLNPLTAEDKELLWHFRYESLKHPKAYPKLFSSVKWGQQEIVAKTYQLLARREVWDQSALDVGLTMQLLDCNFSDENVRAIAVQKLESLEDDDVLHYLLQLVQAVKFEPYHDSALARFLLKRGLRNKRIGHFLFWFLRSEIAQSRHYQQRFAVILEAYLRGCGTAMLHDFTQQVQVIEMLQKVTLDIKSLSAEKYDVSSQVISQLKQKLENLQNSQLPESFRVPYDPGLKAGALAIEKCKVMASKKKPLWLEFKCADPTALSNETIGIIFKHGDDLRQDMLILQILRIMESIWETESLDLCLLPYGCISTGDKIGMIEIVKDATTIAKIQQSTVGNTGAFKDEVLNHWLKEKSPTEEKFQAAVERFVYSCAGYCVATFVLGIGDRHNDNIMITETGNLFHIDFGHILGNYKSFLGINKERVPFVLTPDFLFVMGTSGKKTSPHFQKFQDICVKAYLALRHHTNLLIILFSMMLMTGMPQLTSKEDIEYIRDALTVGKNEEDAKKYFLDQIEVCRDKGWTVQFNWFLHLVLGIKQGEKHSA
Sequence of PI3Kδ (p110δ/p85α) Recombinant Human Protein (O00329 whole entry): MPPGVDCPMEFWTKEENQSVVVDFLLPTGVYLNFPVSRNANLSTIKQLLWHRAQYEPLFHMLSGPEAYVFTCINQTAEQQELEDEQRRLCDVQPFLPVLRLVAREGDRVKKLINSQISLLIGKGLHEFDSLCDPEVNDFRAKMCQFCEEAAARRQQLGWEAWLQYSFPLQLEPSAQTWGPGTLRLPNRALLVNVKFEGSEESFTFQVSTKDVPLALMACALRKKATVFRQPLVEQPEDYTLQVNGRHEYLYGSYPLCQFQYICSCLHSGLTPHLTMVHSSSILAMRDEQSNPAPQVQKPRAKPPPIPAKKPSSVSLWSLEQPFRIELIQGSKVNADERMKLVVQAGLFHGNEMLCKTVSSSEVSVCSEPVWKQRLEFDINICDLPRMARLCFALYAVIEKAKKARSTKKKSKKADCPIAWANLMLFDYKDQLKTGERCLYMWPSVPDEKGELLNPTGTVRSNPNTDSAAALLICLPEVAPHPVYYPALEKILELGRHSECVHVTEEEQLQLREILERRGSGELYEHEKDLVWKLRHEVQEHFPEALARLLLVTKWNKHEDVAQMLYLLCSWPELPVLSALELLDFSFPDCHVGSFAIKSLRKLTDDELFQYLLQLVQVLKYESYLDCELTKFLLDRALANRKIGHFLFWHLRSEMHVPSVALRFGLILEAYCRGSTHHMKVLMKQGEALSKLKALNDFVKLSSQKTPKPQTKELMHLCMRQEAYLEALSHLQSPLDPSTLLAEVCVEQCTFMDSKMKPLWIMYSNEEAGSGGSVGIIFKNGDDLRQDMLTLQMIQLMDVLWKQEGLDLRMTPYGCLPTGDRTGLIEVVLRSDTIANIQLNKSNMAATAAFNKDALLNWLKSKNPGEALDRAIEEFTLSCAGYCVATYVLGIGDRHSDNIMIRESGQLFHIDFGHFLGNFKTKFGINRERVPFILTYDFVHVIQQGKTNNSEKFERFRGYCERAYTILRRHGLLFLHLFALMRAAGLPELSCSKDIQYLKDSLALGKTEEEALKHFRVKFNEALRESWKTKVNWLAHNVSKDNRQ
Sequence of PI3Kδ (p110δ/p85α) Recombinant Human Protein (P27986 whole entry partner): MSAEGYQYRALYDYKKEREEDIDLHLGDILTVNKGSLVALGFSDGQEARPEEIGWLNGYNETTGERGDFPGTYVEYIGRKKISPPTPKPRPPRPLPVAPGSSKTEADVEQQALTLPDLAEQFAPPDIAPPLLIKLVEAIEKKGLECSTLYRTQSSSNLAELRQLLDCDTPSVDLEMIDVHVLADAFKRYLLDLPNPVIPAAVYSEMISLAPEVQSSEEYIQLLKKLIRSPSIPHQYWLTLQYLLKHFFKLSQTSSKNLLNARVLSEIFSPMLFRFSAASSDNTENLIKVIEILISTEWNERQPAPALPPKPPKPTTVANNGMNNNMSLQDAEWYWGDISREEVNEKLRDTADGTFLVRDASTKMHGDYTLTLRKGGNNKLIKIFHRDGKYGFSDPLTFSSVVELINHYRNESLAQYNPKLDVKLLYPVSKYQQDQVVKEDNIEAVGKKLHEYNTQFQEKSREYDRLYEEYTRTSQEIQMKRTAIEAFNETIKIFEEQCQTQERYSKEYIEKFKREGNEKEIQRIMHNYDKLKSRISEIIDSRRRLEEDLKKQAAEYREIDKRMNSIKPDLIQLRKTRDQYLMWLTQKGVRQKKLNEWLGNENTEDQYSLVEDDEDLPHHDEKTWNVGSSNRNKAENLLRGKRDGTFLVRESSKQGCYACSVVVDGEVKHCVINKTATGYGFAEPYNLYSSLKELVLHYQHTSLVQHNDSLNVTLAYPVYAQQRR

In the case of `Cc1ccc(S(=O)(=O)NCC2CC(F)(F)C2)cc1-c1cnc2c(N)nc(C(=O)NC3CCC3)cn12` [Example 446, 8-amino-N-cyclobutyl-3-(5-(N-((3,3-difluorocyclobutyl)methyl)sulfamoyl)-2-methylphenyl)imidazo[1,2-a]pyrazine-6-carboxamide trifluoroacetate salt], the half-maximal inhibitory concentration (IC50) was 0.1 to 0.5 µM in assay [1] (Homo sapiens), 0.1 to 0.5 µM in assay [2] and under 0.1 µM in assay [3].

`CNC(=O)c1cn2c(-c3cc(S(=O)(=O)NC4CC(F)(F)C4)ccc3C)cnc2c(N)n1` [Example 447, 8-Amino-3-(5-(N-(3,3-difluorocyclobutyl)sulfamoyl)-2-methylphenyl)-N-methylimidazo[1,2-a]pyrazine-6-carboxamide trifluoroacetate salt]: the IC50 in assay [1] (Homo sapiens) is 0.5 to 1 µM; in assay [2], 0.5 to 2 µM; in assay [3], under 0.1 µM.

Turning to `Cc1ccc(S(=O)(=O)NC2CC(F)(F)C2)cc1-c1cnc2c(N)nc(C(=O)NC3CCC3)cn12` [Example 448, 8-amino-N-cyclobutyl-3-(5-(N-(3,3-difluorocyclobutyl)sulfamoyl)-2-methylphenyl)imidazo[1,2-a]pyrazine-6-carboxamide trifluoroacetate salt], the IC50 in assay [1] (Homo sapiens) was 0.1 to 0.5 µM; in assay [2] it was 0.5 to 2 µM; in assay [3] it was under 0.1 µM.

Turning to `CNC(=O)c1cn2c(-c3cc(S(=O)(=O)N[C@H]4CC[C@H](CC#N)OC4)ccc3C)cnc2c(N)n1` [Example 449, 8-Amino-3-(5-(N-((3S,6R)-6-(cyanomethyl)tetrahydro-2H-pyran-3-yl)sulfamoyl)-2-methylphenyl)-N-methylimidazo[1,2-a]pyrazine-6-carboxamide trifluoroacetate salt], the IC50 is over 1 µM in assay [1] (Homo sapiens), 0.1 to 0.5 µM in assay [2] and under 0.1 µM in assay [3].

In the case of `Cc1ccc(S(=O)(=O)N[C@H]2CC[C@H](CC#N)OC2)cc1-c1cnc2c(N)nc(C(=O)NC3CCC3)cn12` [Example 450, 8-amino-3-(5-(N-((3S,6R)-6-(cyanomethyl)tetrahydro-2H-pyran-3-yl)sulfamoyl)-2-methylphenyl)-N-cyclobutylimidazo[1,2-a]pyrazine-6-carboxamide trifluoroacetate salt], the results for the IC50 in assay [1] (Homo sapiens), in assay [2] and in assay [3] were 0.5 to 1 µM, 0.1 to 0.5 µM and under 0.1 µM, respectively.

As for `Cc1ccc(S(=O)(=O)N[C@H]2CC[C@H](CC#N)OC2)cc1-c1cnc2c(N)nc(C(=O)NC3CC(F)(F)C3)cn12` [Example 451, 8-amino-3-(5-(N-((3S,6R)-6-(cyanomethyl)tetrahydro-2H-pyran-3-yl)sulfamoyl)-2-methylphenyl)-N-(3,3-difluorocyclobutyl)imidazo[1,2-a]pyrazine-6-carboxamide trifluoroacetate salt], the IC50 is 0.5 to 1 µM in assay [1] (Homo sapiens), 0.1 to 0.5 µM in assay [2] and under 0.1 µM in assay [3].

For the molecule `Cc1ccc(S(=O)(=O)N[C@H]2CC[C@](C)(O)CC2)cc1-c1cnc2c(N)ncnn12` [Example 463, 3-(4-Aminoimidazo[2,1-f][1,2,4]triazin-7-yl)-N-((1r,4r)-4-hydroxy-4-methylcyclohexyl)-4-methylbenzenesulfonamide], the IC50 was 0.1 to 0.5 µM in assay [1] (Homo sapiens), 0.1 to 0.5 µM in assay [2] and under 0.1 µM in assay [3].

With `Cc1ccc(S(=O)(=O)N2CCC[C@@H](N)C2)cc1-c1cnc2c(N)nc(C(F)(F)F)cn12` [Example 464, (R)-3-(5-((3-Aminopiperidin-1-yl)sulfonyl)-2-methylphenyl)-6-(trifluoromethyl)imidazo[1,2-a]pyrazin-8-amine tris(2,2,2-trifluoroacetate)], the IC50 in assay [1] (Homo sapiens), in assay [2] and in assay [3] was under 0.1 µM throughout.

Take `Cc1cn2c(-c3cc(S(=O)(=O)N[C@@H]4CC[C@@H](C(C)(C)O)OC4)c(C)cc3C)cnc2c(N)n1` [Example 465, 5-(8-Amino-6-methylimidazo[1,2-a]pyrazin-3-yl)-N-((3R,6S)-6-(2-hydroxypropan-2-yl)tetrahydro-2H-pyran-3-yl)-2,4-dimethylbenzenesulfonamide]: the IC50 in assay [1] (Homo sapiens) is 0.1 to 0.5 µM; in assay [2], 0.5 to 2 µM; in assay [3], under 0.1 µM.

Take `Cc1c(F)cc(S(=O)(=O)N[C@H]2CC[C@H](CC#N)OC2)cc1-c1cnc2c(N)nc(C(F)(F)F)nn12` [Example 466, 3-(4-Amino-2-(trifluoromethyl)imidazo[2,1-f][1,2,4]triazin-7-yl)-N-((3S,6R)-6-(cyanomethyl)tetrahydro-2H-pyran-3-yl)-5-fluoro-4-methylbenzenesulfonamide]: the IC50 in assay [1] (Homo sapiens), in assay [2] and in assay [3] was under 0.1 µM each time.

For the molecule `Cc1ccc(S(=O)(=O)N[C@H]2CC[C@H](CF)OC2)cc1-c1cnc2c(N)ncnn12` [Example 467, 3-(4-Aminoimidazo[2,1-f][1,2,4]triazin-7-yl)-N-((3S,6R)-6-(fluoromethyl)tetrahydro-2H-pyran-3-yl)-4-methylbenzenesulfonamide], the IC50 in assay [1] (Homo sapiens) was under 0.1 µM; in assay [2], 0.1 to 0.5 µM; in assay [3], under 0.1 µM.

In the case of `Cc1nc(N)c2ncc(-c3cc(S(=O)(=O)NCC(C)(C)O)cc(F)c3C)n2n1` [Example 468, 3-(4-Amino-2-methylimidazo[2,1-f][1,2,4]triazin-7-yl)-5-fluoro-N-(2-hydroxy-2-methylpropyl)-4-methylbenzenesulfonamide], the values for the IC50 in assay [1] (Homo sapiens), in assay [2] and in assay [3] were 0.1 to 0.5 µM, 0.1 to 0.5 µM and under 0.1 µM, respectively.

Consider `[2H]C([2H])([2H])c1nc(N)c2ncc(-c3cc(S(=O)(=O)NCC(C)(C)O)cc(F)c3C([2H])([2H])[2H])n2n1` [Example 469, 3-(4-Amino-2-(methyl-d3)imidazo[2,1-f][1,2,4]triazin-7-yl)-5-fluoro-N-(2-hydroxy-2-methylpropyl)-4-(methyl-d3)benzenesulfonamide], for which the half-inhibitory concentration (IC50) in assay [1] (Homo sapiens) is 0.1 to 0.5 µM; in assay [2] it was 0.1 to 0.5 µM; in assay [3] it was under 0.1 µM.

With `Cc1ccc(NS(=O)(=O)C2CCOCC2)cc1-c1cnc2c(N)nccn12` [Example 471, N-(3-(8-Aminoimidazo[1,2-a]pyrazin-3-yl)-4-methylphenyl)tetrahydro-2H-pyran-4-sulfonamide], the concentration for half-maximal inhibition (IC50) is over 1 µM in assay [1] (Homo sapiens), 0.5 to 2 µM in assay [2] and 0.1 to 0.5 µM in assay [3].

`Cc1ccc(S(=O)(=O)N2CCCC(CO)C2)cc1-c1cnc2c(N)nc(C(F)(F)F)cn12` (stereo not drawn) [Example 472, (1-((3-(8-Amino-6-(trifluoromethyl)imidazo[1,2-a]pyrazin-3-yl)-4-methylphenyl)sulfonyl)piperidin-3-yl)methanol]: the IC50 in assay [1] (Homo sapiens) was 0.1 to 0.5 µM; in assay [2], 0.1 to 0.5 µM; in assay [3], under 0.1 µM.

Regarding `Cc1ccc(S(C)(=O)=O)cc1-c1cnc2c(N)nc(-c3cccc(CC#N)c3)cn12` [Example 474, 2-(3-(8-Amino-3-(2-methyl-5-(methylsulfonyl)phenyl)imidazo[1,2-a]pyrazin-6-yl)phenyl)acetonitrile trifluoroacetate], the IC50 in assay [1] (Homo sapiens) was 0.1 to 0.5 µM; in assay [2], 0.1 to 0.5 µM; in assay [3], under 0.1 µM.

Turning to `Cc1ccc(S(C)(=O)=O)cc1-c1cnc2c(N)nc(-c3ccc(C(F)F)cc3)cn12` [Example 475, 6-(4-(Difluoromethyl)phenyl)-3-(2-methyl-5-(methylsulfonyl)phenyl)imidazo[1,2-a]pyrazin-8-amine trifluoroacetate], the IC50 was 0.5 to 1 µM in assay [1] (Homo sapiens), 0.1 to 0.5 µM in assay [2] and under 0.1 µM in assay [3].

Regarding `Cc1ccc(S(C)(=O)=O)cc1-c1cnc2c(N)nc(-c3ccncc3F)cn12` [Example 476, 6-(3-Fluoropyridin-4-yl)-3-(2-methyl-5-(methylsulfonyl)phenyl)imidazo[1,2-a]pyrazin-8-amine trifluoroacetate], the IC50 was 0.1 to 0.5 µM in assay [1] (Homo sapiens), 0.1 to 0.5 µM in assay [2] and under 0.1 µM in assay [3].

For the molecule `COc1ncccc1-c1cn2c(-c3cc(S(C)(=O)=O)ccc3C)cnc2c(N)n1` [Example 477, 6-(2-Methoxypyridin-3-yl)-3-(2-methyl-5-(methylsulfonyl)phenyl)imidazo[1,2-a]pyrazin-8-amine trifluoroacetate], the IC50 in assay [1] is 0.1 to 0.5 µM; in assay [2], 0.1 to 0.5 µM; in assay [3], under 0.1 µM.

As for `Cc1ccc(S(C)(=O)=O)cc1-c1cnc2c(N)nc(-c3cccc(CO)c3F)cn12` [Example 481, (3-(8-Amino-3-(2-methyl-5-(methylsulfonyl)phenyl)imidazo[1,2-a]pyrazin-6-yl)-2-fluorophenyl)methanol], the IC50 in assay [1] (Homo sapiens) was 0.1 to 0.5 µM; in assay [2], 0.1 to 0.5 µM; in assay [3], under 0.1 µM.

With `Cc1ccc(S(C)(=O)=O)cc1-c1cnc2c(N)nc(-c3ccc(N)nc3)cn12` [Example 482, 6-(6-Aminopyridin-3-yl)-3-(2-methyl-5-(methylsulfonyl)phenyl)imidazo[1,2-a]pyrazin-8-amine trifluoroacetate], the values for the half-maximal inhibitory concentration (IC50) in assay [1] (Homo sapiens), in assay [2] and in assay [3] were over 1 µM, 0.5 to 2 µM and under 0.1 µM, respectively.
